Results from publication PMC10138577, “Prenylated Flavonoids with Selective Toxicity against Human Cancers” (International Journal of Molecular Sciences, 2023).

How the values were obtained:
Format in all cases: cell-based
[1] = test system: T47D human breast ductal carcinoma cells; test: In vitro antiproliferative assay (SRB), T47D; details: T47D, 72 h exposure, SRB, mean ± SD
From the text: (§1) The following established in vitro cell lines were applied: human breast adenocarcinoma (MCF-7 and SK-BR-3), human breast ductal carcinoma (T47D), human prostate adenocarcinoma (PC-3), human prostate carcinoma (Du145), human colorectal adenocarcinoma (HT-29 and LoVo), doxorubicin-resistant human colorectal adenocarcinoma (LoVo/Dx), human myelomonocytic leukemia (MV-4-11), human lung adenocarcinoma (A549), normal murine embryonic fibroblasts (BALB/3T3) and human lung microvascular endothelial (HLMEC). All the cell lines were obtained from the American Type Culture Collection (Rockville, MD, USA) except for LoVo and LoVo/DX, which were received from the Technical University of Gdańsk, Poland, courtesy of Prof. E. Borowski. All the cell lines were maintained in the Institute of Immunology and Experimental Therapy, Wroclaw, Poland. The cells were cultured in the following media: DMEM medium (BALB/3T3), Eagle medium (MCF-7, SK-BR-3, Du145), RPMI medium (HLMEC, MV-4-11) or RPMI 1640 + Opti-MEM (1:1) medium (A549, T47D, LoVo, LoVo/Dx, PC-3, HT-29). The DMEM medium was supplemented with 2 mM L-glutamine and 10% fetal bovine serum. The Eagle medium was supplemented with 4 mM L-glutamine, 10% fetal bovine serum, 1 mM sodium pyruvate for Du145 cells or 2 mM L-glutamine, 1% amino acids and 0.8 mg L^−1 of insulin for MCF-7 and SK-BR-3. The RPMI medium was supplemented with 2 mM L-glutamine, 1 mM sodium pyruvate and 10% fetal bovine serum. The RPMI 1640 + Opti-MEM (1:1) medium was supplemented with 2 mM L-glutamine, 5% fetal bovine serum (PC-3, A549) and 0.8 mg L^−1 insulin (T47D) or 1 mM sodium pyruvate (HT-29, LoVo, LoVoDx) and 0.1 ug/mL doxorubicin (LoVo/Dx). The media contained antibiotics: 100 µg mL^−1 streptomycin and 100 U mL^−1 penicillin. All the cell lines were incubated at 37 °C in a humid atmosphere saturated with 5% CO2.
(§2) The details of this technique were described by Skehan et al.. After 72 h of incubation with the tested compounds, the cells were fixed in situ by gently adding cold 50% trichloroacetic acid—TCA (50 µL per well). The plates were incubated at 4 °C for 1 h and then washed five times with tap water and air-dried. Next, the cellular material fixed with TCA was stained by adding 50 µL of 0.4% sulforhodamine B dissolved in 1% acetic acid to each well and incubating the wells for 30 min at room temperature. The unbound dye was removed by washing the plates five times with 1% acetic acid, whereas the stain bound to the cells was extracted with 150 µL of 10 mM unbuffered Tris base for determination of the optical density at a 540 nm wavelength in a computer-interfaced, 96-well microtiter plate reader–Multiskan FC photometer (Thermo Scientific, Waltham, MA, USA). The background optical density was measured in the wells filled with culture medium, without the cells.
(§3) Twenty-four hours before incubation with the tested compounds, the cells were seeded in 96-well plates (Sarstedt, Nümbrecht, Germany) at a density of 10^4 cells per well (10^3 cells per well for HLMEC) in 100 µL of culture medium. The analysis of the antiproliferative activity of the compounds was performed using sulforhothamine B (SRB) (for all the adherent cells) or 3-(4,5-dimethylthiazol-2-yl)-2,5-diphenyl tetrazolium bromide (MTT) (for the leukemia cells—MV-4-11). The details of this technique have been previously described by Skehan et al. and Antoszak et al.. An assay was performed after 72 h of exposure at varying concentrations (from 0.1 to 100 µg mL^−1) of xanthohumol (1), aurone (2) and the reference drug cisplatin. Each compound at each concentration was tested in a single experiment, which was repeated at least 3 times. […] The results were calculated as the IC50 (μM) (half maximal inhibitory concentration), i.e., the concentration of the tested agent that inhibits the proliferation of the cancer cell population by half. […]

[2] = test system: A549 human lung adenocarcinoma cells; test: In vitro antiproliferative assay (SRB), A549; details: A549, 72 h exposure, SRB, mean ± SD
From the text: as §1, §2, §3

[3] = test system: PC-3 human prostate adenocarcinoma cells; test: In vitro antiproliferative assay (SRB), PC-3; details: PC-3, 72 h exposure, SRB, mean ± SD
From the text: as §1, §2, §3

[4] = test system: LoVo/Dx doxorubicin-resistant human colorectal adenocarcinoma cells; test: In vitro antiproliferative assay (SRB), LoVo/Dx; details: LoVo/Dx, 72 h exposure, SRB, mean ± SD
From the text: as §1, §2, §3

[5] = test system: Du145 human prostate carcinoma cells; test: In vitro antiproliferative assay (SRB), Du145; details: Du145, 72 h exposure, SRB, mean ± SD
From the text: as §1, §2, §3

[6] = test system: MV-4-11 human myelomonocytic leukemia cells; test: In vitro antiproliferative assay (MTT), MV-4-11; details: MV-4-11, 72 h exposure, MTT, mean ± SD
From the text: as §1
The details of this technique were described by Antoszczak et al.. The proliferation inhibition of human myelomonocytic leukemia (MV-4-11) by the tested compounds was measured using the MTT assay. Thus, 20 µL of 3-(4,5-dimethylthiazol-2-yl)-2,5-diphenyl tetrazolium bromide solution was added to each well. Then, the plates were incubated for 4 h in a cell incubator to allow the cells to metabolize the yellow MTT to blue formazan. Next, 80 µL of lysing mixture (consisting of 67.5 g sodium dodecyl sulfate, 225 mL dimethylformamide and 275 mL distilled water) was added to each well. The plates were incubated for 24 h for the formazan crystals to be released from the cells and dissolved, and then the absorbance of each well was read on a 96-well microtiter plate reader (Multiskan FC photometer (Thermo Scientific)) at a 570 nm wavelength.
Twenty-four hours before incubation with the tested compounds, the cells were seeded in 96-well plates (Sarstedt, Nümbrecht, Germany) at a density of 10^4 cells per well (10^3 cells per well for HLMEC) in 100 µL of culture medium. The analysis of the antiproliferative activity of the compounds was performed using sulforhothamine B (SRB) (for all the adherent cells) or 3-(4,5-dimethylthiazol-2-yl)-2,5-diphenyl tetrazolium bromide (MTT) (for the leukemia cells—MV-4-11). The details of this technique have been previously described by Skehan et al. and Antoszak et al.. An assay was performed after 72 h of exposure at varying concentrations (from 0.1 to 100 µg mL^−1) of xanthohumol (1), aurone (2) and the reference drug cisplatin. Each compound at each concentration was tested in a single experiment, which was repeated at least 3 times. […] The results were calculated as the IC50 (μM) (half maximal inhibitory concentration), i.e., the concentration of the tested agent that inhibits the proliferation of the cancer cell population by half. The IC50 values and the mean values ± SD calculated for each experiment separately using GraphPad Prism software (GraphPad Software 9.1.0, San Diego, CA, USA) are presented in Table S1 in the Supplementary Materials.

[7] = test system: normal murine embryonic fibroblasts (BALB/3T3); test: In vitro cytotoxicity against normal cells (SRB), BALB/3T3; details: BALB3T3 normal cell line, 72 h exposure, SRB, mean ± SD; read-out: Antiproliferative activity IC50
From the text: as §1
(§4) The details of this technique were described by Skehan et al.. […] The unbound dye was removed by washing the plates five times with 1% acetic acid, whereas the stain bound to the cells was extracted with 150 µL of 10 mM unbuffered Tris base for determination of the optical density at a 540 nm wavelength in a computer-interfaced, 96-well microtiter plate reader–Multiskan FC photometer (Thermo Scientific, Waltham, MA, USA). The background optical density was measured in the wells filled with culture medium, without the cells.
(§5) Twenty-four hours before incubation with the tested compounds, the cells were seeded in 96-well plates (Sarstedt, Nümbrecht, Germany) at a density of 10^4 cells per well (10^3 cells per well for HLMEC) in 100 µL of culture medium. […] The results were calculated as the IC50 (μM) (half maximal inhibitory concentration), i.e., the concentration of the tested agent that inhibits the proliferation of the cancer cell population by half. […]

[8] = test system: HT-29 human colorectal adenocarcinoma cells; test: In vitro antiproliferative assay (SRB), HT-29; details: HT-29, 72 h exposure, SRB, mean ± SD
From the text: as §1, §2, §3

[9] = test system: MCF-7 human breast adenocarcinoma cells; test: In vitro antiproliferative assay (SRB), MCF-7; details: MCF-7, 72 h exposure, SRB, mean ± SD
From the text: as §1, §2, §3

[10] = test system: LoVo human colorectal adenocarcinoma cells; test: In vitro antiproliferative assay (SRB), LoVo; details: LoVo, 72 h exposure, SRB, mean ± SD
From the text: as §1, §2, §3

[11] = test system: human lung microvascular endothelial (HLMEC) cells; test: In vitro cytotoxicity against normal cells (SRB), HLMEC; details: HLMEC normal cell line, 72 h exposure, SRB, mean ± SD; read-out: Antiproliferative activity IC50
From the text: as §1, §4, §5

[12] = test system: SK-BR-3 human breast adenocarcinoma cells; test: In vitro antiproliferative assay (SRB), SK-BR-3; details: SK-BR-3, 72 h exposure, SRB, mean ± SD
From the text: as §1, §2, §3

With `N.N.[Cl][Pt][Cl]` [Cisplatin, cisplatin, reference compound] the IC50 [1] was 13.1 ± 5.58 µM, the IC50 [2] was 11.3 ± 1.36 µM and the IC50 [3] was 15.3 ± 2.28 µM. It also gave an IC50 [4] of 8.97 ± 1.45 µM, an IC50 [5] of 9.36 ± 0.63 µM and an IC50 [6] of 1.11 ± 0.36 µM. For the same compound, the IC50 [7] was 8.96 ± 2.15 µM, the IC50 [8] was 18.9 ± 2.25 µM and the IC50 [9] was 11.3 ± 0.99 µM. The IC50 [10] was 4.32 ± 0.9 µM, the IC50 [11] was 1.26 ± 0.1 µM and the IC50 [12] was 21.6 ± 3.93 µM.
